Tests used:
[1] = test system: T47D breast cancer multicellular tumor spheroids; experiment: In vitro screen in T47D breast cancer multicellular tumor spheroids, BET inhibitor plus palbociclib; format: cell-based; settings: for Synergy score: BET inhibitor (30, 300, 3000 nM) in combination with 25 nM palbociclib, from AUC of spheroid growth curves (Chalice Analyzer); for Growth inhibition of T47D spheroids, as average diameter (mm): combination with palbociclib (25 nM) versus single agents
Procedure: T47D multicellular tumor spheroids were grown in a low-adhesion 96-well plate for use in screening. […] Two hundred T47D cells were seeded per well of 96-well ultralow attachment plates (ULA-96U, Thermo Fisher). Cells were grown for 4 days to allow spheroid formation, followed by initiation of compound treatment as indicated (day 0). […] The medium was replaced every 3 days. Spheroid average diameter was quantified every 3 days (Celigo 200-BFFL-S, Nexcelcom) and spheroid growth curves were obtained. The area-under-curve (AUC) was quantified and used to calculate synergy scores for BET inhibitors in combination with palbociclib (Chalice Analyzer, Horizon Discovery).

[2] = biological target: BRD4 (Homo sapiens, UniProt O60885); settings: method not given; listed beside Literature Ref.; cited from earlier work
[3] = test system: MCF-7 breast cancer xenograft; experiment: In vivo study in MCF-7 breast cancer xenograft; set-up: species or system NOD scid gamma (NSG) mice; settings: palbociclib 50 mpk plus ABBV-075 2 mpk once daily days 0-20, recovery until day 47
Procedure: NOD scid gamma (NSG) mice (6-7 weeks old, Jax laboratory, Sacramento CA) were subcutaneously injected with 5×10^6 MCF-7 cells (ATCC) with 50% matrigel. When MCF-7 xenografts reached a volume of -150 mm^3, the tumor bearing mice were randomly assigned to four treatment groups, with each n=10 (vehicle, palbociclib (50 mpk), mivebresib (2 mpk), combination treatment with palbociclib (50 mpk) plus mivebresib (2 mpk)). Treatment was initiated after the randomization as indicated. Mice were treated once daily from days 0-20 and then tumors were allowed to recover until day 47. Mean tumor volumes (mm^3) are averages of MCF-7 xenografts (n=10).

[4] = test system: Hs766T pancreatic cancer spheroids; experiment: In vitro screen in Hs766T PDAC multicellular tumor spheroids, BET inhibitor plus palbociclib; format: cell-based; settings: combination with palbociclib (50 nM) versus single agents
Procedure: Hs766T multicellular tumor spheroids were grown in a low-adhesion 96-well plate for use in screening. Hs766T cells were cultured in DMEM medium supplemented with 10% fetal bovine serum (GIBCO™). 2% Matrigel (Cultrex, cat#3432-005-1) was added to the medium, and 400 cells/well were subsequently seeded per well of 96-well ultralow attachment plates (ULA-96U, Thermo Fisher). Cells were grown for 4 days to allow spheroid formation, followed by initiation of compound treatment as indicated (day 0). Cells were treated either with vehicle (DMSO), or with 3 nM, 10 nM or 30 nM of test compound B7, or 30 nM, 300 nM or 3000 nM of test compound B8. […] The medium was replaced every 3 days. Spheroid average diameter was quantified every 3 days (Celigo 200-BFFL-S, Nexcelcom). Spheroid growth curves, generated as described in Example 2, are shown in FIGS. 12A-12C (B7); and FIGS. 13A-13C (B8).

Row | Compound | Synergy score [1] | Growth inhibition of T47D spheroids, as average diameter (mm) [1] | IC50 [2] | Tumor growth delay and tumor growth inhibition (mean tumor volume) [3] | Growth inhibition of Hs766T spheroids, as average diameter (mm) [4]
1 | COc1cc(OC)c2c(=O)[nH]c(-c3cc(C)c(OCCO)c(C)c3)nc2c1 [B6, RVX-208 (RVX000222 or apabetalone)] | 0.33 | enhanced growth inhibition | – | – | –
2 | CCNC(=O)C[C@@H]1N=C(c2ccc(Cl)cc2)c2cc(OC)ccc2-n2c(C)nnc21 [B3, IBET-762 (GSK525762)] | – | enhanced growth inhibition | – | – | –
3 | COc1cc2c(cc1-c1c(C)noc1C)ncc1[nH]c(=O)n([C@H](C)c3ccccn3)c12 [B1, IBET-151 (GSK1210151)] | 1.09 | enhanced growth inhibition | – | – | –
4 | Cc1cc2cc(NS(=O)(=O)c3ccccc3F)ccc2[nH]c1=O [B4, PFI-2] | 0.79 | enhanced growth inhibition | 96 nM | – | –
5 | Cc1noc2c1-c1ccccc1C(c1ccc(Cl)cc1)=N[C@H]2CC(N)=O [B9, CPI-0610] | – | enhanced growth inhibition | – | – | –
6 | CCS(=O)(=O)Nc1ccc(Oc2ccc(F)cc2F)c(-c2cn(C)c(=O)c3[nH]ccc23)c1 [B7, ABBV-075 (mivebresib)] | – | enhanced growth inhibition | 1.5 nM | enhanced tumor growth delay and tumor growth inhibition | enhanced growth inhibition
7 | Cc1sc2c(c1C)C(c1ccc(Cl)cc1)=N[C@@H](CC(=O)OC(C)(C)C)c1nnc(C)n1-2 [B2, JQ1] | 1.08 | enhanced growth inhibition | – | – | –
8 | Cc1sc2c(c1C)C(c1ccc(Cl)cc1)=N[C@@H](CC(=O)Nc1ccc(O)cc1)c1nnc(C)n1-2 [B10, MK-8628 (OTX015)] | – | enhanced growth inhibition | – | – | –
9 | PFI-1 [B5] | 0.76 | enhanced growth inhibition | 136 nM | – | –
10 | COc1nnc2ccc(N3CCC(c4ccc(OCCN5CCN(C)C(=O)[C@H]5C)cc4)CC3)nn12 [B8, AZD5153] | – | enhanced growth inhibition | – | – | enhanced growth inhibition

Source: US20200405809A1, “COMBINATION OF A CYCLIN DEPENDENT KINASE INHIBITOR AND A BET- BROMODOMAIN INHIBITOR” (Pfizer Inc., priority 2018, published 2020)
